Values of other authors in patent US10722456B2, “Oral composition of celecoxib for treatment of pain” (Dr. Reddy's Laboratories Ltd., priority 2016, dated 2020).

Conditions: oral administration

Cc1ccc(-c2cc(C(F)(F)F)nn2-c2ccc(S(N)(=O)=O)cc2)cc1 [Celecoxib, 4-[5-(4-methylphenyl)—3-(trifluoromethyl)-1H-pyrazol-1-yl] benzenesulfonamide]
time for peak plasma concentrations to be achieved: approximately 3.0 hours
